{
  "source": "ChEMBL document CHEMBL3046854",
  "about": "“Lupeol-3-O-decanoate, a new triterpene ester from Cadaba farinosa Forssk. growing in Saudi Arabia” (Med Chem Res, 2013)",
  "data": [
    {"system": "Radical scavenging activity", "experiment": "Antioxidant activity assessed as DPPH free radical scavenging activity at 20 uM after 30 min by UV-vis spectrophotometric analysis relative to propyl gallate", "format": "functional", "units": {"Activity": "%"}, "values": [
      {"smiles": "COc1ccc(-c2oc3cc(O)cc(O)c3c(=O)c2O[C@@H]2O[C@H](CO)[C@@H](O)[C@H](O)[C@H]2O)cc1OC", "Activity": 49.1},
      {"smiles": "O=c1c(O[C@@H]2O[C@H](CO)[C@@H](O)[C@H](O)[C@H]2O)c(-c2ccc(O)c(O)c2)oc2cc(O)cc(O)c12", "Activity": 71.8},
      {"smiles": "NCCCCCCCCCCCC(=O)O", "Activity": 87.1}
    ]}
  ]
}
